# Test results reported in ChEMBL document CHEMBL4118163, “Identification and preliminary structure-activity relationship studies of novel pyridyl sulfonamides as potential Chagas disease therapeutic agents” (Bioorg Med Chem Lett, 2018).
# Experiments:
# [1] = Cytotoxicity against mouse L929 cells assessed as reduction in cell viability after 96 hrs by alamar blue assay; format: cell-based; conditions: read-out: LC50
# Trypanosoma cruzi [2] = test: Antitrypanosomal activity against Trypanosoma cruzi Tulahuen amastigotes infected in mouse L929 cells assessed as reduction in infection level at 10 uM after 96 hrs by beta galactosidase reporter assay relative to control; format: functional; conditions: L929, 96 h
# Trypanosoma cruzi [3] = test: Antitrypanosomal activity against bloodstream trypomastigote stage of Trypanosoma cruzi Y infected in Swiss Webster mouse cardiac cells after 24 hrs; format: functional, organism-based
# [4] = Selectivity index, ratio of LC50 for mouse L929 cells to EC50 for Trypanosoma cruzi Tulahuen amastigotes; format: toxicity; conditions: read-out: Selectivity Index
# Trypanosoma cruzi [5] = test: Antitrypanosomal activity against Trypanosoma cruzi Tulahuen amastigotes infected in mouse L929 cells after 96 hrs by beta galactosidase reporter assay; format: functional, organism-based; conditions: L929, 96 h
# [6] = Cytotoxicity against Swiss Webster mouse cardiomyocyte assessed as reduction in cell viability after 24 hrs by PrestoBlue assay; set-up: species or system Cardiac Muscle Cell; conditions: cardiomyocytes, read-out: LC50
# Vero = test: Cytotoxic activity against African green monkey Vero cells; format: cell-based; conditions: Chlorocebus sabaeus
# Trypanosoma cruzi [7] = test: Antitrypanosomal activity against Trypanosoma cruzi Silvio X10/7 intracellular forms; format: functional, organism-based
# [8] = Selectivity index, ratio of LC50 for Swiss Webster mouse cardiac cells to EC50 for bloodstream trypomastigote stage of Trypanosoma cruzi Y; format: toxicity; conditions: read-out: Selectivity Index
Structure (SMILES),CC50 at 96 h [1] [µM],inhibition at 10 µM (Trypanosoma cruzi [2]) [%],EC50 (Trypanosoma cruzi [3]) [µM],selectivity ratio [4],EC50 (Trypanosoma cruzi [5]) [µM],CC50 at 24 h [6] [µM],EC50 (Vero) [µM],EC50 (Trypanosoma cruzi [7]) [µM],selectivity ratio [8]
COc1ccc(S(=O)(=O)NCc2ccccn2)c(C)c1C,> 200,7.2,–,–,–,–,–,–,–
CCOc1ccc(S(=O)(=O)NCc2cccnc2)c2ccccc12,> 200,1.1,–,–,–,–,–,–,–
CCOc1ccc(S(=O)(=O)Nc2ccncc2)c(C)c1C,> 200,3.6,–,–,–,–,–,–,–
CCOc1ccc(S(=O)(=O)NCc2ccccn2)c(C)c1C,> 200,3.6,–,–,–,–,–,–,–
COc1ccc(S(=O)(=O)NCc2cccnc2)c2ccccc12,> 200,28,–,–,–,–,–,–,–
COc1c(C)cc(S(=O)(=O)Nc2cccnc2)c(C)c1C,> 200,2.1,–,–,–,–,–,–,–
CCCOc1cc(C)c(S(=O)(=O)Nc2cccnc2)cc1C,> 200,78,> 50,> 15,13.2,> 100,–,–,–
CCOc1ccc(S(=O)(=O)Nc2cccnc2)cc1CC,> 200,3,–,–,–,–,–,–,–
COc1ccc(S(=O)(=O)Nc2ccc(Cc3ccncc3)cc2)c2ccccc12,> 200,0,–,–,–,–,–,–,–
COc1ccc2cc(S(=O)(=O)Nc3cccnc3)ccc2c1,> 200,41.1,> 50,> 36,5.44,> 100,–,–,–
CCOc1ccc(S(=O)(=O)Nc2cccnc2)c(C)c1C,> 200,62,> 50,> 13.5,14.8,> 100,–,–,–
CCOc1ccc(S(=O)(=O)Nc2cccnc2)cc1C(C)(C)C,> 200,1.9,–,–,–,–,–,–,–
CCOc1ccc(S(=O)(=O)NCc2ccncc2)c(C)c1C,> 200,65,> 50,> 23,8.62,> 100,–,–,–
COc1cc(C)c(S(=O)(=O)Nc2cccnc2)cc1C(C)C,> 200,26.7,–,–,–,–,–,–,–
CCOc1ccc(S(=O)(=O)Nc2cccnc2)c2ccccc12,> 400,–,–,–,> 25,–,50,5.5,–
CCOc1ccc(S(=O)(=O)Nc2ccncc2)c2ccccc12,> 200,0.1,–,–,–,–,–,–,–
O=C(Cn1ccnc1[N+](=O)[O-])NCc1ccccc1 [BENZNIDAZOLE],> 400,89.3,11.2,> 114,3.51,> 1000,–,–,> 89
CC1CS(=O)(=O)CCN1/N=C/c1ccc([N+](=O)[O-])o1 (centres undefined) [NIFURTIMOX],–,–,–,–,–,–,50,0.9,–
